From PMC13083723 (Patterns, 2026)
Values joined by “and” are separate entries in the source; they are usually repeats but may differ in a detail not shown here. Identical values can stand only once. Counter-ions that a name gives are not always drawn. Like-named read-outs stand apart in the source and are kept apart here.

Assays:
A549-ACE2 cells = test: cells; type: cell-based; settings: A549-ACE2, 24 h, read-out: PLD_Effect(%) A549-ACE2
Vero-E6 cells = test: cells; type: cell-based; settings: for EC50: read-out: PLD EC50
[1] = cited from earlier work; for Ki: read-out: Ki (value)
SARS-CoV-2 [2] = settings: Caco-2, 20 µM; cited from earlier work
SARS-CoV-2 [3] = settings: 10 µM; cited from earlier work
[4] = Chlorocebus sabaeus, Vero C1008, 24 h, read-out: PLD_Effect(%) VERO-E6
[5] = value is the negative log10 of mol/L

SMILES	activation at 10 µM (A549-ACE2 cells)	activation at 10 µM (Vero-E6 cells; [4])	pchembl_value (AC50) [1]	IC50 ([1]; read-out: IC50 (value))	pchembl_value (IC50) [1, 5]	other results
CN1CCCN(C(c2ccccc2)c2ccc(Cl)cc2)CC1 (centres unmarked) [Homochlorcyclizine?2HCl]	69.6%	82.5%	6.64 and 7.14 and 6.83			
CCCCCCCCC(=O)N[C@H](CN1CCCC1)[C@H](O)c1ccc2c(c1)OCCO2 [Genz-123346 (free base)]	81.6%	63.4%		9 nM	8.05	
Cn1ncc(Cl)c1-c1cc(C(=O)N[C@H](CN)Cc2ccc(F)c(F)c2)oc1Cl [Uprosertib]	92%	82.6%		339 nM	6.47	
CCN(CC)CCO[C@H]1CC[C@@]2(C)C(=CC[C@@H]3[C@@H]2CC[C@]2(C)C(=O)CC[C@@H]32)C1 [U-18666A, reference compound]						PLD Effect in % 5 µM (Vero-E6 cells; 5 µM): 84.91%; PLD Effect in % 10 µM (Vero-E6 cells; 10 µM): 98.22%; PLD Effect in % 20 µM (Vero-E6 cells; 20 µM): 112.55%; EC50 (Vero-E6 cells): 1770 nM; CaCo2 CPE inhibition % (SARS-CoV-2 [2]): 77.44%
CN1C2CCC1CC(OC(c1ccc(F)cc1)c1ccc(F)cc1)C2 (centres unmarked)	76.3%	61.5%				Log 1/Ki (value) [1]: 7.86; pchembl_value (Log 1/Ki) [1]: 7.86; pchembl_value (Ki) [1, 5]: 6.84 and 6.07 and 7.94
CNCCC(Oc1ccc(C(F)(F)F)cc1)c1ccccc1 (centres unmarked) [FLUOXETINE HYDROCHLORIDE]	109%	54.3%	7.03 and 7.53			
C[C@@H](NCCCc1cccc(C(F)(F)F)c1)c1cccc2ccccc12 [AMG-073 HCl, cinacalcet hydrochloride, reference compound]	104%	61.8%	6.14			Vero-E6 CPE inhibition % (SARS-CoV-2 [3]): -0.15; activation at 5 µM (Vero-E6 cells; Chlorocebus sabaeus, Vero C1008, 24 h, read-out: PLD Effect in % 5 µM): 70.8%; activation at 10 µM (Vero-E6 cells; Chlorocebus sabaeus, Vero C1008, 24 h, read-out: PLD Effect in % 10 µM): 79.5%; activation at 20 µM (Vero-E6 cells; Chlorocebus sabaeus, Vero C1008, 24 h, read-out: PLD Effect in % 20 µM): 253%; EC50 (Vero-E6 cells; Chlorocebus sabaeus, Vero C1008): 18600 nM; AC50 ([1]; read-out: AC50 (value)): 730 nM
CN1CCCC(n2nc(Cc3ccc(Cl)cc3)c3ccccc3c2=O)CC1 (centres unmarked) [AZELASTINE HYDROCHLORIDE]	57.3%	57.2%	7.62	1000 nM	6.00	pIC50 (value) [1]: 7.0; pchembl_value (pIC50) [1]: 7.00; AC50 ([1]; read-out: AC50 (value)): 24 nM
C[C@H](Oc1cc(-c2cnn(C3CCNCC3)c2)cnc1N)c1c(Cl)ccc(F)c1Cl [(S)-crizotinib]	102%	70.2%		680 nM	6.86 and 6.17	Ki [1]: 161 nM; pchembl_value (Kd) [1, 5]: 7.43 and 6.28 and 7.41; pchembl_value (Ki) [1, 5]: 6.79
O=C(NCCN1CCC2(CC1)C(=O)NCN2c1cccc(F)c1)c1ccc2ccccc2c1 [VU-0364739]	113%	55.1%		20 nM	7.70	
CNCC[C@H](Oc1cccc2ccccc12)c1cccs1 [DULOXETINE HYDROCHLORIDE]	91.5%	92.6%				IC50 [1]: 440 nM
CCN(CC)CCOC(=O)C(c1ccccc1)C1CCCCC1 (centres unmarked) [DROFENINE HYDROCHLORIDE]	53.9%	52%	6.66 and 7.47			
C=CCN(C)CCCCCCOc1ccc(C(=O)c2ccc(Br)cc2)c(F)c1 [Ro 48-8071 (fumarate)]	102%	92.9%				Log IC50 (value) [1]: -8.19; pIC50 (value) [1]: 6.65; pchembl_value (Log IC50) [1]: 8.19; pchembl_value (pIC50) [1]: 6.65
CCN(CCCc1ccccc1)CCCc1ccccc1 [ALVERINE CITRATE]	63.7%	58.9%				AC50 [1]: 29 nM
CN(C(=O)Cc1ccc(Cl)c(Cl)c1)[C@H](CN1CCCC1)c1ccccc1 [ICI-199441]	99.8%	53.5%		26 nM	7.58	
C[C@@H]1CCCN1CCc1cc2cc(-c3ccc(C#N)cc3)ccc2o1 [ABT 239 tartrate]	67.4%	66.8%				Ki [1]: 0.45 nM
